Assay results as given in US12503438B2, “Compounds for the treatment of kinase-dependent disorders” (Exelixis, Inc., priority 2019, dated 2025).

Target: T1, Mer (Homo sapiens, UniProt Q12866)
T1 construct: host or cells: 293A cells (Thermo Fisher #R70507)
T1 sequence (Q12866 21-999): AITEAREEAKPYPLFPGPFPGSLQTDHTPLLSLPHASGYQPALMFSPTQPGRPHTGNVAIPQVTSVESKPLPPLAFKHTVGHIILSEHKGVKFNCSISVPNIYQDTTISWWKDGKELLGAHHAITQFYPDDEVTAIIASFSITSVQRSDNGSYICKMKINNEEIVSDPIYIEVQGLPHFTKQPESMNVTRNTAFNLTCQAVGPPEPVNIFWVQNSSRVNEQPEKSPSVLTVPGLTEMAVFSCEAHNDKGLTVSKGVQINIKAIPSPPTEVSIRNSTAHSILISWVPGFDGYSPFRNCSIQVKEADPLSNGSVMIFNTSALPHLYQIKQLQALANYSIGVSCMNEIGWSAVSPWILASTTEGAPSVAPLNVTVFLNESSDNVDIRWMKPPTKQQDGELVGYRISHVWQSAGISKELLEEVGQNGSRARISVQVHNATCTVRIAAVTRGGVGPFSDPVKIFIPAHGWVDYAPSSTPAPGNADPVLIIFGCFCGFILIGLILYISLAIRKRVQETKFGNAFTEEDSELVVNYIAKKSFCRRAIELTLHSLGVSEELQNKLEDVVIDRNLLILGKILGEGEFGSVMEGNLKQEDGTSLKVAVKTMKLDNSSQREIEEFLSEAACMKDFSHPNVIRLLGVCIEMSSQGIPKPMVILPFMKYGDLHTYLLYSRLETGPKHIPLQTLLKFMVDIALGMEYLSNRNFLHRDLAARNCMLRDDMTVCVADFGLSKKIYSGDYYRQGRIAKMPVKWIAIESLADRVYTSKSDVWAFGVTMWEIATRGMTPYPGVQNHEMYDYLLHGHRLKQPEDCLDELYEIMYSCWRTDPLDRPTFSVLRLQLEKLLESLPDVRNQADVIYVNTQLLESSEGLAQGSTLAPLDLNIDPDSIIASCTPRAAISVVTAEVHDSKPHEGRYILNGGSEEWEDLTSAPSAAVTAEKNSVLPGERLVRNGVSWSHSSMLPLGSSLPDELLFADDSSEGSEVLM
Assay: Mer autophosphorylation ELISA in transient transfected 293A cells
Assay type: cell-based
Conditions: cellular activity; MERTK-transfected 293A cells, phospho-Mer ELISA
Description: 293A cells (Thermo Fisher #R70507) were seeded at 1.5×10^6 cells/well onto 100 mm dish (Greiner #664169), in DMEM (Thermo Fisher #11995-040) containing 10% FBS (Thermo Fisher #26140-079), 1% MEM NEAA (Thermo Fisher #11140-050), 1% GlutaMax (Thermo Fisher #35050-061), and 1% Penicillin Streptomycin (Thermo Fisher #15140-122). 293A cells were incubated at 37° C., 5% CO2 for 24 h and then transfected with 6 μg MERTK DNA (Genecopoeia #EX-Z8208-M02) using TransIT LT1 transfection reagent (Mirus-Bio #MIR2305). After 24 h incubation, the transfected 293A cells were seeded at 1×10^5 cells/well onto 96-well plates (Corning #3904) in DMEM growth medium overnight. Test compounds were serially diluted to produce an 8-point dose curve in fresh serum-free medium to a final concentration of 0.3% DMSO (vehicle) and added to the cells and incubated for 1 h. Cells were then immediately lysed with 150 μL of cold 1× lysis buffer [20 mM Tris, 137 mM sodium chloride, 2 mM EDTA, 10% glycerol, 1% NP-40 alternative, 1 mM activated sodium orthovanadate, 1 mM PefaBloc SC (Sigma-Aldrich #11429868001), protease/phosphatase inhibitor tablet (Thermo Fisher #A32959)]. Lysates were clarified by centrifugation and 50 μL/well added into the human phospho-Mer DuoSet IC ELISA (R&D Systems #DYC2579-2). Assay was performed according to manufacturer's instructions and sample phospho-Mer concentrations were extrapolated using human phospho-Mer control (R&D Systems #841793) as a standard. Positive control wells (100% activity) contained DMSO-treated cell lysates. Negative control wells (0% activity) contained reference inhibitor-treated cell lysates. IC50 values were calculated by nonlinear regression analysis using a 4-parameter logistic curve fit in ActivityBase XE (IDBS).

O=C(Nc1ccc(F)cc1)C1(C(=O)Nc2ccc(Oc3ccnc4cc(-c5nnco5)ccc34)cc2)CC1 [Compound 73, 1-N′-(4-Fluorophenyl)-1-N-[4-[7-(1,3,4-oxadiazol-2-yl)quinolin-4-yl]oxyphenyl]cyclopropane-1,1-dicarboxamide]
IC50: 10 to 100 nM

O=C(Nc1ccc(F)cc1)C1(C(=O)Nc2ccc(Oc3ccnc4cc(-c5ncc[nH]5)ccc34)cc2)CC1 [Compound 74, 1-N′-(4-Fluorophenyl)-1-N-[4-[7-(1H-imidazol-2-yl)quinolin-4-yl]oxyphenyl]cyclopropane-1,1-dicarboxamide]
IC50: 10 to 100 nM

Cn1ccnc1-c1ccc2c(Oc3ccc(NC(=O)C4(C(=O)Nc5ccc(F)cc5)CC4)cc3)ccnc2c1 [Compound 75, 1-N′-(4-Fluorophenyl)-1-N-[4-[7-(1-methylimidazol-2-yl)quinolin-4-yl]oxyphenyl]cyclopropane-1,1-dicarboxamide]
IC50: 10 to 100 nM

COc1cc2c(Oc3ccc(NC(=O)C4(C(=O)Nc5ccc(F)cc5)CC4)cc3)ccnc2cc1-c1cnn(C)c1 [Compound 76, 1-N′-(4-Fluorophenyl)-1-N-[4-[6-methoxy-7-(1-methylpyrazol-4-yl)quinolin-4-yl]oxyphenyl]cyclopropane-1,1-dicarboxamide]
IC50: ≤ 10 nM

CNC(=O)c1cc2c(Oc3ccc(NC(=O)C4(C(=O)Nc5ccc(F)cc5)CC4)cc3)ccnc2cc1-c1cnn(C)c1 [Compound 77, 1-N′-(4-Fluorophenyl)-1-N-[4-[6-(methylcarbamoyl)-7-(1-methylpyrazol-4-yl)quinolin-4-yl]oxyphenyl]cyclopropane-1,1-dicarboxamide]
IC50: 10 to 100 nM

Cc1cc2c(Oc3ccc(NC(=O)C4(C(=O)Nc5ccc(F)cc5)CC4)cc3)ccnc2cc1-c1cnn(C)c1 [Compound 78, 1-N′-(4-Fluorophenyl)-1-N-[4-[6-methyl-7-(1-methylpyrazol-4-yl)quinolin-4-yl]oxyphenyl]cyclopropane-1,1-dicarboxamide]
IC50: 10 to 100 nM

CS(=O)(=O)n1cc(-c2ccc3c(Oc4ccc(NC(=O)C5(C(=O)Nc6ccc(F)cc6)CC5)cc4)ccnc3c2)cn1 [Compound 79, 1-N′-(4-Fluorophenyl)-1-N-[4-[7-(1-methylsulfonylpyrazol-4-yl)quinolin-4-yl]oxyphenyl]cyclopropane-1,1-dicarboxamide]
IC50: 10 to 100 nM

CC1Cc2cc(F)ccc2N1C(=O)C1(C(=O)Nc2ccc(Oc3ccnc4cc(-c5cnn(C)c5)ccc34)cc2)CC1 (stereo not shown) [Compound 80, 1-(5-Fluoro-2-methyl-2,3-dihydroindole-1-carbonyl)-N-[4-[7-(1-methylpyrazol-4-yl)quinolin-4-yl]oxyphenyl]cyclopropane-1-carboxamide]
IC50: > 300 nM

Cn1cc(-c2ccc3c(Oc4ccc(NC(=O)C5(C(=O)N6CCc7cc(F)ccc76)CC5)cc4)ccnc3c2)cn1 [Compound 81, 1-(5-Fluoro-2,3-dihydroindole-1-carbonyl)-N-[4-[7-(1-methylpyrazol-4-yl)quinolin-4-yl]oxyphenyl]cyclopropane-1-carboxamide]
IC50: 100 to 300 nM

Cc1cc(F)cc(C)c1NC(=O)C1(C(=O)Nc2ccc(Oc3ccnc4cc(-c5cnn(C)c5)ccc34)cc2)CC1 [Compound 82, 1-N′-(4-Fluoro-2,6-dimethylphenyl)-1-N-[4-[7-(1-methylpyrazol-4-yl)quinolin-4-yl]oxyphenyl]cyclopropane-1,1-dicarboxamide]
IC50: 10 to 100 nM

O=C(Nc1ccc(F)cc1)C1(C(=O)Nc2ccc(Oc3ccnc4cc(C5CCNC5)ccc34)cc2)CC1 (stereo not shown) [Compound 83, 1-N′-(4-Fluorophenyl)-1-N-[4-(7-pyrrolidin-3-ylquinolin-4-yl)oxyphenyl]cyclopropane-1,1-dicarboxamide]
IC50: 100 to 300 nM

O=C(Nc1ccc(F)cc1)C1(C(=O)Nc2ccc(Oc3ccnc4cc(-c5ccn(C(F)F)n5)ccc34)cc2)CC1 [Compound 84, 1-N-[4-[7-[1-(Difluoromethyl)pyrazol-3-yl]quinolin-4-yl]oxyphenyl]-1-N′-(4-fluorophenyl)cyclopropane-1,1-dicarboxamide]
IC50: 10 to 100 nM

O=C(Nc1ccc(F)cc1)C1(C(=O)Nc2ccc(Oc3ccnc4cc(-c5ccccn5)ccc34)cc2)CC1 [Compound 85, 1-N′-(4-Fluorophenyl)-1-N-[4-(7-pyridin-2-ylquinolin-4-yl)oxyphenyl]cyclopropane-1,1-dicarboxamide]
IC50: 10 to 100 nM

Cn1ncc(-c2ccc3c(Oc4ccc(NC(=O)C5(C(=O)Nc6ccc(F)cc6)CC5)cc4)ccnc3c2)n1 [Compound 86, 1-N′-(4-Fluorophenyl)-1-N-[4-[7-(2-methyltriazol-4-yl)quinolin-4-yl]oxyphenyl]cyclopropane-1,1-dicarboxamide]
IC50: 10 to 100 nM

O=C(Nc1ccc(F)cc1)C1(C(=O)Nc2ccc(Oc3ccnc4cc(-c5ccc[n+]([O-])c5)ccc34)cc2)CC1 [Compound 109, 1-N′-(4-Fluorophenyl)-1-N-[4-[7-(1-oxidopyridin-1-ium-3-yl)quinolin-4-yl]oxyphenyl]cyclopropane-1,1-dicarboxamide]
IC50: 10 to 100 nM

Cc1cc2c(Oc3c(F)cc(NC(=O)C4(C(=O)Nc5ccc(F)cc5)CC4)c(F)c3F)ccnc2cc1-c1cnn(C)c1 [Compound 110, 1-N-(4-Fluorophenyl)-1-N′-[2,3,5-trifluoro-4-[6-methyl-7-(1-methylpyrazol-4-yl)quinolin-4-yl]oxyphenyl]cyclopropane-1,1-dicarboxamide]
IC50: 10 to 100 nM

CN1CCN(c2cc(-c3ccc4c(Oc5ccc(NC(=O)C6(C(=O)Nc7ccc(F)cc7)CC6)cc5)ccnc4c3)ccn2)CC1 [Compound 111, 1-N′-(4-Fluorophenyl)-1-N-[4-[7-[2-(4-methylpiperazin-1-yl)pyridin-4-yl]quinolin-4-yl]oxyphenyl]cyclopropane-1,1-dicarboxamide]
IC50: 10 to 100 nM

Cc1cc2c(Oc3cc(Cl)c(NC(=O)C4(C(=O)Nc5ccc(F)cc5)CC4)cc3F)ccnc2cc1-c1cnn(C)c1 [Compound 112, 1-N′-[2-Chloro-5-fluoro-4-[6-methyl-7-(1-methylpyrazol-4-yl)quinolin-4-yl]oxyphenyl]-1-N-(4-fluorophenyl)cyclopropane-1,1-dicarboxamide]
IC50: 10 to 100 nM

O=C(Nc1ccc(F)cc1)C1(C(=O)Nc2ccc(Oc3ccnc4cc(-c5cccnc5)ccc34)c(F)c2)CC1 [Compound 113, 1-N-(4-Fluorophenyl)-1-N′-[3-fluoro-4-(7-pyridin-3-ylquinolin-4-yl)oxyphenyl]cyclopropane-1,1-dicarboxamide]
IC50: 10 to 100 nM

O=C(Nc1ccc(F)cc1)C1(C(=O)Nc2ccc(Oc3ccnc4cc(-c5ccncn5)ccc34)cc2)CC1 [Compound 114, 1-N′-(4-Fluorophenyl)-1-N-[4-(7-pyrimidin-4-ylquinolin-4-yl)oxyphenyl]cyclopropane-1,1-dicarboxamide]
IC50: 10 to 100 nM

O=C(Nc1ccc(F)cc1)C1(C(=O)Nc2cc(F)c(Oc3ccnc4cc(-c5cccnc5)ccc34)cc2F)CC1 [Compound 115, 1-N′-[2,5-Difluoro-4-(7-pyridin-3-ylquinolin-4-yl)oxyphenyl]-1-N-(4-fluorophenyl)cyclopropane-1,1-dicarboxamide]
IC50: 10 to 100 nM

O=C(Nc1ccc(F)cc1)C1(C(=O)Nc2ccc(Oc3ccnc4cc(-c5cncs5)ccc34)cc2)CC1 [Compound 116, 1-N′-(4-Fluorophenyl)-1-N-[4-[7-(1,3-thiazol-5-yl)quinolin-4-yl]oxyphenyl]cyclopropane-1,1-dicarboxamide]
IC50: 10 to 100 nM
